Data published in article PMC8470058 (Antibiotics, 2021).

Experiments:
[1] = Voriconazole-related adverse events in Child–Pugh class C patients; type: in vivo, human
Description: Forty-three CP-C Asian patients were eligible to participate in the study (Figure 1a). The female-to-male ratio was 4/39. The mean patient age and weight were 49.35 ± 11.65 years (range, 32 to 89 years) and 61.27 ± 12.87 kg (range, 36 to 99 kg). […] The median sampling time of C0 was 5 days (interquartile range (IQR), 3 to 5 days; range, 3 to 11 days).
Researchers conducted the prospective observational study and collected the hospital information and laboratory information at one tertiary hospital from January 2018 to December 2019. […] The administration regimen is mainly under empirical treatment regimens, and the adjustment is generally based on the results of TDM. This study was approved by the Ethics Committee of The Second XiangYa Hospital of Central South University with an approved NO. yxlb-lays-2018012.
Data were extracted from medical records and laboratory information systems, including voriconazole-related information (Cmins, timing, amount, route), demographics, laboratory data, and concomitant medications (antimicrobial agents, CYP2C19 inducers, and inhibitors). The first trough concentration, the repeated measured ones and the last one of patients were recorded as C0, C1, Css, respectively. The Child–Pugh class and MELD score were calculated based on previous criteria.

[2] = CP-C patients in ICU; cited from earlier work
[3] = both, human, in vivo
Description: Researchers conducted the prospective observational study and collected the hospital information and laboratory information at one tertiary hospital from January 2018 to December 2019. […] This study was approved by the Ethics Committee of The Second […] Hospital of Central South University with an approved NO. yxlb-lays-2018012. Venous blood samples (2 mL) were collected into anticoagulant tubes. […] Monitoring continued every 3 days. […] The two-dimensional separation conditions consisted of FRO C18 (100 mm × 3.0 mm, 5 μm, ANAX) and ASTON HD C18 (150 mm × 4.6 mm, 5 μm, ANAX) with the same flow rate 1.0 mL/min. […] This laboratory participated in the annual national external quality assessment scheme. […] The Child-Pugh class and MELD score were calculated based on previous criteria. The Pearson correlation and nonparametric Spearman correlation were used to study the relationship between clinical or laboratory data and Cmins during the therapy, according to the type of variables. […] The Cmins measured after withdrawal or lack of the corresponding key values of clinical or laboratory data were excluded in pairs in the bivariate correlation analysis or in rows in the multiple linear regression. For the regression analysis, the genotype of CYP2C19 was set as a dummy variable.

[4] = cited from earlier work

## C[C@@H](c1ncncc1F)[C@](O)(Cn1cncn1)c1ccc(F)cc1F [voriconazole]
[1]; 20 of 43 patients, dizziness, hallucinations, visual disturbance
  Patients with adverse events identified as voriconazole related: 46.5%
[1]; range, 1 to 12 days
  Median duration from voriconazole initiation to onset of adverse events: 2 days
[2]
  Change of terminal half-life (t1/2): increased about five times
  Median terminal t1/2: 60.7 h
[3]
  Decrease of Cmin in male patients compared to the female: 1651 ng/mL
  Decrease of concentration with a one-unit increase in PTA count: 0.035 mg/L
  Patients with targeted C0 reaching supratherapeutic levels with no adjusted daily dose: 25.8%
[4]
  Oral bioavailability: 91.6%
